The values below come from patent US10947245B2, “Crystal form A of 2-butoxy-7-(4-(pyrrolidin-1-ylmethyl)benzyl)-5H-pyrrolo[3,2-d]pyrimidin-4-amine for inhibiting toll-like receptor activity” (priority 2016, dated 2021).

The subject of series [1] is human peripheral blood mononuclear cells (PBMC). The experiment in a line: Peripheral blood mononuclear cell test: cytokine stimulation (CBA, flow cytometer). The series is classed as cell-based. Particulars: for TNF-α MEC / IFN-α MEC: human PBMC, 24 h; for IFN-α MEC: lowest drug concentration stimulating the production of 30 pg/mL of IFN-α. The method, then:
The purpose of this example is to determine the expression level of cytokines 24 h after stimulation to human peripheral blood mononuclear cells (PBMC) with the compound of formula I.
The cell supernatant was assayed without dilution and the levels of IFN-α were directly determined. The compound of formula I was firstly formulated into 20 mM DMSO stock solution during the test and was gradient diluted with cell medium in 10-fold with the total number of 11 diluting points. The compounds in 9 diluting points (the highest concentration was 200 μmol/L) were added into 96-well plate with 50 μL in each well. Fresh human peripheral blood mononuclear cells were inoculated, with 150 μL in each well containing 450,000 cells. The cell culture plate was incubated in an incubator at 37° C., 5% CO2 for 24 h. After incubation, the culture plate was centrifuged at 1200 rpm for 5 min and the supernatant was collected and stored at −20° C. for determination. The determination of cytokine was performed using Cytometric Bead Array (CBA) of BD-Pharmingen on flow cytometer. Using the above determining method, the lowest drug concentration stimulating the production of 30 pg/mL of IFN-α was designated as the MEC value in the cytokine stimulating test.

The target in the next series is T1, Toll-like receptor 8 (Homo sapiens, UniProt Q9NR97).
T1 construct: host or cells: HEK-blue hTLR8 cell (HEK293-derived reporter line)
T1 sequence (Q9NR97 27-1041): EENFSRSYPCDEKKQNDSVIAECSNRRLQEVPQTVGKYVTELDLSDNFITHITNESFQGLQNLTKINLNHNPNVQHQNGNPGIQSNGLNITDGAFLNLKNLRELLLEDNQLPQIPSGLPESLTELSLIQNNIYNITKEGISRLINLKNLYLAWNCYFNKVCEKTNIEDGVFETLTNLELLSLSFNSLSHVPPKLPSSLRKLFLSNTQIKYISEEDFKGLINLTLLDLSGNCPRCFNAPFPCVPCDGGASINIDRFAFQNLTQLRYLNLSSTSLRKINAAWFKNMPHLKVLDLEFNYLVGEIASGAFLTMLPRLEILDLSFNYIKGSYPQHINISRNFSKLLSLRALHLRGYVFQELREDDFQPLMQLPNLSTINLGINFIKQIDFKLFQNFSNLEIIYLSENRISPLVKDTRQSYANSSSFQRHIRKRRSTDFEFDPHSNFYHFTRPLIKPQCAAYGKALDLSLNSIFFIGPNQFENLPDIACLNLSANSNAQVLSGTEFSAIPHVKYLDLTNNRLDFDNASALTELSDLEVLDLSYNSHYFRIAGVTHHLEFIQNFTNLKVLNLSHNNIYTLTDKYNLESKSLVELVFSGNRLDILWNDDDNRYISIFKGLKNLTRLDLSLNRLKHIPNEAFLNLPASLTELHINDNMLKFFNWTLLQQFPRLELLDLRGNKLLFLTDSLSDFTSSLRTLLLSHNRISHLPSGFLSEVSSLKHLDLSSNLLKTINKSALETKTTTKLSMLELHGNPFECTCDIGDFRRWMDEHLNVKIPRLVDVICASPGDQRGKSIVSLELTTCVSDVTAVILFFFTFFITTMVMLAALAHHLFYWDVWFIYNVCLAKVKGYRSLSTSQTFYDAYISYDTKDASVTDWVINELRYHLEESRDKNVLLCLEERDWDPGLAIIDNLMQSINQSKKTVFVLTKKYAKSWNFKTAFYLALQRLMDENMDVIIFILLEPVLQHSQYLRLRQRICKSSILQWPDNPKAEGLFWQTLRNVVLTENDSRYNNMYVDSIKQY
The experiment in a line: Toll-like receptor 8 in vitro receptor binding activity screen (HEK-blue hTLR8 cell, Quanti-Blue alkaline phosphatase readout). The series is classed as cell-based. The settings on record: versus GS-9620. On the procedure: (§1) Efficacy example 1: Toll-like receptor 7 and Toll-like receptor 8 in vitro receptor binding activity screen
(§2) HEK-blue hTLR7 cell and HEK-blue hTLR8 cell (available from InvivoGen)
(§3) The compounds were gradient diluted with DMSO in 3-fold using liquid work station POD starting at a concentration of 10 mmol/L and 10 points were diluted (2nd column to 11th column, and each point was duplicated). At 12th column, 1 μL of 5 mg/mL positive compound R848 was added as positive control; and at 1st column, 1 μL of DMSO was added as negative control. Each well contained 1 μL of DMSO.
(§4) 2. The cells in culture flask were collected and the cell density was diluted to 250,000 cells/mL.
(§5) 3. 200 μL (50,000 cells/well) of cell suspension was added into prepared compound plate and the final concentration of DMSO in each well was 0.5%.
(§6) 4. The culture plates containing cells and the compounds were incubated in CO2 incubator for 24 h at 37° C., 5% CO2.
(§7) 5. After 24 h incubation, 20 μL of supernatant was removed from each well to a 96-well transparent assay plate. To each well of the assay plate was added 180 μL of Quanti-Blue reagent and the plate was incubated in an incubator at 37° C., 5% CO2 for 1 h.
(§8) 6. After 1 h, the content of alkaline phosphatase in 20 μL of supernatant was determined using Microplate Reader OD650.
(§9) 7. EC50 of each compound was obtained with Prism software.

For another series, the target named is T2, Toll-like receptor 7 (Homo sapiens, UniProt Q9NYK1).
T2 construct: host or cells: HEK-blue hTLR7 cell (HEK293-derived reporter line)
T2 sequence (Q9NYK1 27-1049): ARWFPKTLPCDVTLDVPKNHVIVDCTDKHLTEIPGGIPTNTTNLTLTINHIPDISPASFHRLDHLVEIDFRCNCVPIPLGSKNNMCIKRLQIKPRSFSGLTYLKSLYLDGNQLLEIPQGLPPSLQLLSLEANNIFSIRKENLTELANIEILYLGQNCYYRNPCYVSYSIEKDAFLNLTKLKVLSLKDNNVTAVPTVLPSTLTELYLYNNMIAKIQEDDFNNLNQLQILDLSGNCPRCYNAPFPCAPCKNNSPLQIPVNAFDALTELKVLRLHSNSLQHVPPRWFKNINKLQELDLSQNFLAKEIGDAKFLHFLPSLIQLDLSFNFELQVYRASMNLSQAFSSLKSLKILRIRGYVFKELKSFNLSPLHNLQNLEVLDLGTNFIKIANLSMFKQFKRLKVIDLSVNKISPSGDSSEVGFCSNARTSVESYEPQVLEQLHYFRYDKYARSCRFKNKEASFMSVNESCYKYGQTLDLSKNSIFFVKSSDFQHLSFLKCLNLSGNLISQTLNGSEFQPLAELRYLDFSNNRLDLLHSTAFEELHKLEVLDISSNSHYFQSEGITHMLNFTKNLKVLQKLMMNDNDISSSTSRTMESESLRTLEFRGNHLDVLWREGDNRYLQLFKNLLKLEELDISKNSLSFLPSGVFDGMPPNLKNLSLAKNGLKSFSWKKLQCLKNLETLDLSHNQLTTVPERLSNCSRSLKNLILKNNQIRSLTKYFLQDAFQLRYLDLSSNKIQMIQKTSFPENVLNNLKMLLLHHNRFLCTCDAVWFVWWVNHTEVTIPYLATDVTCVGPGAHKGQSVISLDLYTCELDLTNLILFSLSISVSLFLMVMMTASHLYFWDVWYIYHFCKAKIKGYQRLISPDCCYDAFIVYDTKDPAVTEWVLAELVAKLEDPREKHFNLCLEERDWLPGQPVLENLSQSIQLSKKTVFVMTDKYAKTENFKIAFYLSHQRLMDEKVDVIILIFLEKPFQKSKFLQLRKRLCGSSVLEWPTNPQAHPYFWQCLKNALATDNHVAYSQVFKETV
Briefly: Toll-like receptor 7 in vitro receptor binding activity screen (HEK-blue hTLR7 cell, Quanti-Blue alkaline phosphatase readout). Particulars: versus GS-9620. The series is classed as cell-based. On the procedure: as §1, §2, §3, §4, §5, §6, §7, §8, §9

A short description of series [2]: High temperature stability test (60° C., open container). Type of series: physicochemical. The settings on record: for Appearance / Content / Total content of impurities: open container. On the procedure: The crystal form A of the compound of formula I was tested in the accelerated test under high temperature conditions for stability in accordance with Guidelines for the Stability Test of Pharmaceutical Ingredients and Pharmaceutical Preparations (Chinese Pharmacopoeia 2010 Appendix XIXC).
The crystal form A prepared in Example 1 was placed in an open-clean container at 60° C. The samples were taken for test on day 10, day 20 and day 30, respectively.

Series [3] is described as follows: High humidity stability test (40° C./75% humidity, open). Type of series: physicochemical. Particulars: for Appearance / Content / Total content of impurities: 40° C./75% humidity (open). The method, then: The crystal form A of the compound of formula I was tested in the accelerated test under high humidity conditions for stability in accordance with Guidelines for the Stability Test of Pharmaceutical Ingredients and Pharmaceutical Preparations (Chinese Pharmacopoeia 2010 Appendix XIXC).
The crystal form A prepared in Example 1 was subjected to an accelerated test in a constant temperature and humidity vessel under the conditions of 40° C./75% humidity (open). The samples were taken for test on day 30, day 60 and day 90, respectively.

As to `CCCCOc1nc(N)c2c(n1)N(Cc1cccc(CN3CCCC3)c1)CC(=O)N2` [GS-9620, reference compound], in series [1], the “TNF-α MEC” value was 500 nM and the “IFN-α MEC” value came out at 50 nM.
For `CCCCOc1nc(N)c2[nH]cc(Cc3ccc(CN4CCCC4)cc3)c2n1` [Compound of formula I, 2-butoxy-7-(4-(pyrrolidin-1-ylmethyl)benzyl)-5H-pyrrolo[3,2-d]pyrimidin-4-amine], in series [1], the “TNF-α MEC” value stood at 500 nM and the “IFN-α MEC” value was determined as 5 nM. For the same compound, in series [1] (versus GS-9620), the “TNF-α inducing activity compared with control GS-9620 (in words)” value is on record as “comparable TNF-α inducing activity” and the “in vitro IFN-α inducing activity of PBMCs compared with control GS-9620 (in words)” value was “better in vitro IFN-α inducing activity of PBMCs”. At Toll-like receptor 8, the “in vitro receptor binding activity to Toll-like receptor 8 compared with control GS-9620 (in words)” value is listed as “lower in vitro receptor binding activity to Toll-like receptor 8 than the control”. Moreover, the “in vitro receptor binding activity to Toll-like receptor 7 compared with control GS-9620 (in words)” value on Toll-like receptor 7 was “higher in vitro receptor binding activity to Toll-like receptor 7 than the control”.
For `CCCCOc1nc(N)c2[nH]cc(Cc3ccc(CN4CCCC4)cc3)c2n1` [crystal form A, 2-butoxy-7-(4-(pyrrolidin-1-ylmethyl)benzyl)-5H-pyrrolo[3,2-d]pyrimidin-4-amine], the Appearance entry in series [2] (day 0 (initial)) is reported as “White powder”; in series [2] (day 10), “Light yellow powder”; in series [2] (day 20) it was “Light yellow powder”; in series [2] (day 30), “Light yellow powder”; in series [3] (day 0 (initial)), “White powder”; in series [3] (day 30) it was “White powder”. Also, the Appearance result in series [3] (day 60) and in series [3] (day 90) was “White powder” throughout. The Content in series [2] (day 0 (initial)) was found to be 99.8%; in series [2] (day 10), 98.5%; in series [2] (day 20), 98.1%; in series [2] (day 30), 98.8%; in series [3] (day 0 (initial)), 100.2%; in series [3] (day 30), 99.9%. Moreover, the Content in series [3] (day 60) worked out at 99.9%; in series [3] (day 90), 100.2%. The “Total content of impurities” value in series [2] (day 0 (initial)) was found to be 0.92%; in series [2] (day 10), 1.10%; in series [2] (day 20) it was 1.18%; in series [2] (day 30) it was 1.29%; in series [3] (day 0 (initial)), 0.92%; in series [3] (day 30), 0.92%. Also, the results for the “Total content of impurities” value in series [3] (day 60) and in series [3] (day 90) were 0.65% and 0.93%, respectively. For the same compound, in series [2] (up to 30 days), the “stability in high temperature conditions (in words)” value is listed as “good stability in high temperature conditions”. Further, in series [3] (40° C./75% humidity, up to 90 days), the “stability in high humidity conditions (in words)” value is recorded as “good stability in high humidity conditions”.
